How the values were obtained:
L1210 [1] = test: In vitro concentration required for 50% inhibition (IC50) of growth of L1210 mouse leukemia cells in culture.; type: functional, cell-based
Thymidine phosphorylase = biological target: T1, Thymidine phosphorylase (Mus musculus, UniProt Q99N42); test: In vitro non-competitive inhibition of cleavage of Thymidine (dThd) phosphorylase isolated from Lewis lung carcinoma.; type: tissue-based
T1 sequence (Q99N42 whole entry): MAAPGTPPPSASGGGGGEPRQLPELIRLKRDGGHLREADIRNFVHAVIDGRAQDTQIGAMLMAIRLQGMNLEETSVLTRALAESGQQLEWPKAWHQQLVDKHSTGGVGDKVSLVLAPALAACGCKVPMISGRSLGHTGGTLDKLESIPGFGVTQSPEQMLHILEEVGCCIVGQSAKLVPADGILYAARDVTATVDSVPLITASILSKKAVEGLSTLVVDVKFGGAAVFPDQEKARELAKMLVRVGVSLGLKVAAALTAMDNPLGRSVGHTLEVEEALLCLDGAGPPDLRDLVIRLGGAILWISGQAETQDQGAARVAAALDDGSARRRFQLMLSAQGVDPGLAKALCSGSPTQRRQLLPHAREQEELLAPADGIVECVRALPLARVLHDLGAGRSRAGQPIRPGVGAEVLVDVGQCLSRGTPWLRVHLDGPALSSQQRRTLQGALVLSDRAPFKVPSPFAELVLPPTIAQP

L1210 [2] = test: In vitro concentration required for 50% inhibition (IC50) of growth of L1210 mouse leukemia cells in culture; type: functional, cell-based
[3] = biological target: Thymidylate synthase (Lactobacillus casei); test: In vitro competitive inhibition of dTMP synthetase with respect to substrate dUMP.
[4] = Apparent rate constant Koff for inactivation of dTMP synthase.
[5] = Apparent rate constant Kon for inactivation of dTMP synthase.

O=c1[nH]c(=O)n([C@H]2C[C@H](O)[C@@H](CO)O2)cc1F [FLOXURIDINE]
IC50 (L1210 [1]): 0.0005 µM

O=c1[nH]c(=O)n([C@H]2C[C@H](F)[C@@H](CO)O2)cc1F
Ki (Thymidine phosphorylase): 1700 µM | IC50 (L1210 [2]): 3.4 µM

O=c1[nH]c(=O)n(C2CC(F)C(COP(=O)(O)O)O2)cc1F (stereo unspecified)
Ki [3]: 130 µM | K off [4]: 0.000233 s⁻¹ | Kon [5]: 0.029 s⁻¹

Source: ChEMBL document CHEMBL1122749, “Synthesis and biological activity of 5-fluoro-2',3'-dideoxy-3'-fluorouridine and its 5'-phosphate” (J Med Chem, 1984)
